Results from US20160067248A1, “COMBINATIONS” (GlaxoSmithKline Intellectual Property Development Limited, priority 2011, published 2016).

Tests used:
SKOV3-IP1 cells [1] = assay: Invasion of SKOV3-IP1 cells; format: cell-based, human; conditions: p<0.001
SKOV3-IP1 cells [2] = assay: Migration of SKOV3-IP1 cells; format: cell-based, human; conditions: p<0.001
[3] = target: T1, FAK phosphorylation at Y397 (pFAK^Y397) (Homo sapiens, UniProt Q05397); assay: FAK phosphorylation at Y397 (pFAK Y397) in ovarian cancer cells; format: cell-based
T1 construct: endogenous in cells; host or cells: SKOV3-IP1 and HeyA8 cells
T1 sequence (Q05397 whole entry): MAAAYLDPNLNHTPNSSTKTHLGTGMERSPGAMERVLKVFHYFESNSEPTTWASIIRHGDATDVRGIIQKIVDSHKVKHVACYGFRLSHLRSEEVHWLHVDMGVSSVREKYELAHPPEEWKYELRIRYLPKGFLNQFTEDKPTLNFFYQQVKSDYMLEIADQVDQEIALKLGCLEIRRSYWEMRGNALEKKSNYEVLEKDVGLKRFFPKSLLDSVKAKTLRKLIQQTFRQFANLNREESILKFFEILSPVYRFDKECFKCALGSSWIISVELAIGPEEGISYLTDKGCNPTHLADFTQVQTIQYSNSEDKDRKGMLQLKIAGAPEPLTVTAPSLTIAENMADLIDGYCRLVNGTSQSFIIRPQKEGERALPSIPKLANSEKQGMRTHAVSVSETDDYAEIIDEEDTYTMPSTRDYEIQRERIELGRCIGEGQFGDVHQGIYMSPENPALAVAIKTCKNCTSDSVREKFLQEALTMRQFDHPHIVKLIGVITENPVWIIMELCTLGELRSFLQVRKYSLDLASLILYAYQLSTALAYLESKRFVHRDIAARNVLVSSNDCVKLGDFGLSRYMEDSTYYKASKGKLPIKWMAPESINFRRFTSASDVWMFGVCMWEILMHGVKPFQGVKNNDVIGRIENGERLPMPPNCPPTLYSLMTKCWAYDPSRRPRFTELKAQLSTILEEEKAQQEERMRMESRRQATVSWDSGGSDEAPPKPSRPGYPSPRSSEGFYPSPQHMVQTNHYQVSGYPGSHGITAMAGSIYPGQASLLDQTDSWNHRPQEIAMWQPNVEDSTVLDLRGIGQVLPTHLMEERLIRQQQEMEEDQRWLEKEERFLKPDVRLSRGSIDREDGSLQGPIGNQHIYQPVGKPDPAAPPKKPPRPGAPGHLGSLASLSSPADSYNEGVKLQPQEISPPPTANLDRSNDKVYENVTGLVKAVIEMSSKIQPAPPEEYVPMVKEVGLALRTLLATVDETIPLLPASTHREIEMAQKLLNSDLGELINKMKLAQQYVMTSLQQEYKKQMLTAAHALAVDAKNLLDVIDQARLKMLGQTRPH

[4] = system: SKOV3-Ip1 / HeyA8 tumor xenograft; assay: Combination study, intraperitoneal ovarian tumor xenograft models in nude mice; format: in vivo; conditions: pazopanib 100 mg/kg oral daily
Protocol: Tumor cells were injected intraperitoneally into nude mice. For the first study, mice were inoculated with 1,000,000 SKOV3-Ip1 cells. For the second study, mice were inoculated with 250,000 HeyA8 cells. At the time of inoculation, mice were randomized into groups to be treated by oral gavage and intraperitoneal injection. The animals were grouped as described below. The criteria for end point was animals in any group being moribund. At the time of dissection, animals were sacrificed by cervical dislocation and necropsy immediately performed. Tumor nodules were counted and aggregate tumor weight (g) was recorded. Tumors were fixed in 10% formalin, and fresh tumor was flash-frozen for future analysis.
The goal of this study was to determine the in vivo effects of each of pazopanib, the FAK inhibitor, and docetaxel, alone and in combinations. Nude mice were inoculated with tumor as described above and randomized to the groups below. The following doses of each inhibitor were used: FAK-inhibitor, 75 mg/kg, oral, daily; pazopanib, 100 mg/kg, oral, daily; docetaxel, 35 ug, IP, weekly. […] Tumor nodules were counted and aggregate tumor weight (g) was recorded. […]
In vitro dose-response, in vivo tumor growth and scoring of the immunohistochemistry are presented as mean±Standard Error. Statistical significance was assessed by student's T-test and P≦0.05 was considered to be significant. […]

| levels of FAK phosphorylation at Y397 (pFAK^Y397) ([3]; HeyA8 cells, 10 μM) | levels of FAK phosphorylation at Y397 (pFAK^Y397) ([3]; SKOV3-IP1 cells, 1 μM concentration) | Structure (SMILES) | reduction in invasion (SKOV3-IP1 cells [1]) | reduction in migration (SKOV3-IP1 cells [2]) | decrease in mean tumor weight compared to control ([4]; nude mice, i.p. tumor, FAK-inhibitor 75 mg/kg oral daily, docetaxel 35 ug IP weekly) | decrease of MVD ([4]; p<0.01) |
| --- | --- | --- | --- | --- | --- | --- |
| reduced levels | reduced levels | CONC(=O)c1ccccc1Nc1cc(Nc2cc(C)nn2C(C)C)ncc1Cl [FAK-inhibitor, 2-[(5-chloro-2-[[3-methyl-1-(1-methylethyl)-1H-pyrazol-5-yl]amino]-4-pyridinyl)amino]-N-methoxybenzamide] | 12.5% | 54% | 58% | – |
| – | – | Cc1ccc(Nc2nccc(N(C)c3ccc4c(C)n(C)nc4c3)n2)cc1S(N)(=O)=O [pazopanib, 5-[[4-[(2,3-dimethyl-2H-indazol-6-yl)methylamino]-2-pyrimidinyl]amino]-2-methylbenzenesulfonamide, reference compound] | – | – | – | 49% |
